Source: US9096832B2, “Differentiation of human embryonic stem cells” (LifeScan, Inc., priority 2007, dated 2015)
“And” between values parts separate entries of the source, which are not always exact repeats. Identical values can stand only once.

Assays:
Format in all cases: cell-based
[1] = system: human embryonic stem cell line H9; assay: Cytokine array (RayBiotech) of cell lysates and conditioned media, Activin A +/- Wnt3a (Table VII); parameters: Angiogenin / BDNF / BMP-4 / BMP-6 / CK beta 8-1 / Eotaxin-3 / Flt-3 Ligand / Fractalkine / GCP-2 / GDNF / GM-CSF / I-309 / IFN-gamma / IGFBP-1 / IGFBP-2 / IGFBP-4 / IL-10 / IL-13 / IL-15 / IL-1alpha / IL-1beta / IL-1ra / IL-3 / IL-5 / Leptin / MCP-1 / MIP-1-delta / NT-3 / RANTES / SCF / TGF-beta 1 / TNF-beta / Acrp30 / AgRP / AxI / bFGF: unit not given here; details: H9 day 5, samples 1,2
Description: At passage 54, cells were differentiated in the presence of 100 ng/mlActivinA+/−10 ng/mlWnt3a for 2 days in 0.5% FBS DMEM/F12. […]
Cell lysates were prepared from cells of each treatment group, with a mammalian cell lysis kit (Sigma-Aldrich,MO). Conditioned media from each treatment group was collected and concentrated. Cytokine array analysis was completed using Cytokine Array panels provided by RayBiotech, GA (http://www.raybiotech.com/). […] For each panel, positive and negative controls are also included.

[2] = system: human embryonic stem cell line H9; assay: Cells from […] differentiated on MEFs: role of Wnt-3a (real-time PCR, FACS)
Description: Cells from the human embryonic stem cell line H9 cultured on […]™ for at least five passages were seeded onto MEF feeders in ES media.
At day 3 and 5, the cultures were analyzed by real time PCR for SOX-17, SOX-7, Alpha-fetal protein (AFP), CXCR4, Brychyury (Bry), gooscecoid (GSC), HNF-3 beta, GATA4, hTERT and Oct4. AFP and SOX-7 are regarded as visceral endoderm markers while GATA4, HNF-3beta and SOX-17 represent definite endoderm markers and GSC, Bry, and CXCR4 represent markers of primitive streak. hTERT and Oct-4 are markers for self renewal and pluripotency respectively. FACS analysis was also performed at day 3 and 5.

[3] = system: human embryonic stem cell line H9; assay: Immunocytochemistry of definitive endoderm markers after activin A treatment; details: activin A for five days
Source text: The level of expression of definitive endoderm markers was examined by PCR (FIG. 1), FACS (results summarized in Table II), and immunohistochemistry (FIG. 2).
Levels of expression for HNF-3beta, Sox-17, and GATA4 were low in untreated cells, approximately 10 to 20% of all cells.

With “Activin A: activin A (a member of the TGFβ superfamily), R&D Systems; 'w/o wnt' in Table VII = 100 ng/ml Activin A without Wnt3a” the Acrp30 ([1]; Cell conditioned media) was 1,797.52 and 1,319.88, the AgRP ([1]; Cell conditioned media) was 378.17 and 195.90 and the Amphiregulin ([1]; Cell conditioned media) was 250.52 and 151.01. The Angiogenin ([1]; Cell conditioned media) was 13,726.35 and 11,749.55, the Angiopoietin-2 ([1]; Cell conditioned media) was 655.82 and 632.60 and the AxI ([1]; Cell conditioned media) was 401.31 and 324.05. The BDNF ([1]; Cell conditioned media) was 689.22 and 563.39, the BMP-4 ([1]; Cell conditioned media) was 583.40 and 541.83 and the BMP-6 ([1]; Cell conditioned media) was 354.91 and 355.28. For the same substance, the “CK beta 8-1” value ([1]; Cell conditioned media) was 17.79 and 25.31, the CNTF ([1]; Cell conditioned media) was 282.81 and 211.86 and the EGF ([1]; Cell conditioned media) was 1,681.85 and 1,406.12. For the same substance, the Eotaxin ([1]; Cell conditioned media) was 207.89 and 199.67, the Eotaxin-2 ([1]; Cell conditioned media) was 890.56 and 744.31 and the Eotaxin-3 ([1]; Cell conditioned media) was 975.77 and 665.56. For the same substance, the FGF-7 ([1]; Cell conditioned media) was 449.49 and 352.47, the “Flt-3 Ligand” value ([1]; Cell conditioned media) was 315.58 and 277.47 and the Fractalkine ([1]; Cell conditioned media) was 120.80 and 145.30. For the same substance, the GCP-2 ([1]; Cell conditioned media) was 203.21 and 166.86, the GDNF ([1]; Cell conditioned media) was 176.99 and 194.98 and the GM-CSF ([1]; Cell conditioned media) was 777.25 and 722.75. For the same substance, the IFN-gamma ([1]; Cell conditioned media) was 283.74 and 559.64, the IGF-I ([1]; Cell conditioned media) was 88.96 and 148.11 and the IGFBP-1 ([1]; Cell conditioned media) was 33.71 and 24.37. For the same substance, the IGFBP-2 ([1]; Cell conditioned media) was 27,656.85 and 28,473.95, the IGFBP-4 ([1]; Cell conditioned media) was 10,091.09 and 6,029.45 and the IL-1alpha ([1]; Cell conditioned media) was 10,155.70 and 5,842.90. For the same substance, the IL-1beta ([1]; Cell conditioned media) was 117.99 and 75.93, the IL-1ra ([1]; Cell conditioned media) was 142.34 and 93.74 and the IL-2 ([1]; Cell conditioned media) was 188.22 and 363.72. For the same substance, the IL-3 ([1]; Cell conditioned media) was 4,598.86 and 5,260.77, the IL-4 ([1]; Cell conditioned media) was 357.72 and 239.04 and the IL-6 ([1]; Cell conditioned media) was 7,377.28 and 9,527.88. For the same substance, the IL-7 ([1]; Cell conditioned media) was 456.98 and 430.27, the IL-10 ([1]; Cell conditioned media) was 722.93 and 564.32 and the IL-16 ([1]; Cell conditioned media) was 259.39 and 214.67. The LIGHT ([1]; Cell conditioned media) was 619.92 and 453.71, the Leptin ([1]; Cell conditioned media) was 2,999.42 and 2,016.38 and the M-CSF ([1]; Cell conditioned media) was 529.09 and 269.04. For the same substance, the MCP-1 ([1]; Cell conditioned media) was 572.17 and 500.58, the MCP-4 ([1]; Cell conditioned media) was 123.61 and 61.87 and the MIG ([1]; Cell conditioned media) was 272.50 and 486.52. The NAP-2 ([1]; Cell conditioned media) was 97.39 and 110.61, the NT-3 ([1]; Cell conditioned media) was 97.39 and 171.55 and the PDGF-BB ([1]; Cell conditioned media) was 4,729.96 and 8,521.09. For the same substance, the RANTES ([1]; Cell conditioned media) was 393.31 and 347.78, the SCF ([1]; Cell conditioned media) was 691.09 and 487.46 and the “TGF-beta 1” value ([1]; Cell conditioned media) was 752.90 and 740.56. The “TGF-beta 3” value ([1]; Cell conditioned media) was 111.44 and 115.30, the TNF-beta ([1]; Cell conditioned media) was 675.17 and 671.19 and the bFGF ([1]; Cell conditioned media) was 7,948.03 and 4,993.83. The Amphiregulin ([1]; Cell lysate) was 17.50 and 15.44, the AxI ([1]; Cell lysate) was 637.50 and 795.83 and the BDNF ([1]; Cell lysate) was 167.50 and 167.82. The BMP-4 ([1]; Cell lysate) was 247.00 and 273.70, the “CK beta 8-1” value ([1]; Cell lysate) was 1.00 and 1.13 and the Eotaxin-2 ([1]; Cell lysate) was 262.00 and 336.77. For the same substance, the Eotaxin-3 ([1]; Cell lysate) was 184.50 and 284.96, the FGF-6 ([1]; Cell lysate) was 629.00 and 379.57 and the GM-CSF ([1]; Cell lysate) was 433.00 and 636.37. For the same substance, the I-309 ([1]; Cell lysate) was 152.50 and 246.10, the IFN-gamma ([1]; Cell lysate) was 349.00 and 441.52 and the IGFBP-2 ([1]; Cell lysate) was 3,785.50 and 5,554.45. The IGFBP-4 ([1]; Cell lysate) was 5,553.00 and 6,043.27, the IL-1alpha ([1]; Cell lysate) was 1,236.00 and 1,216.99 and the IL-1beta ([1]; Cell lysate) was 1.00 and 1.13. The IL-1ra ([1]; Cell lysate) was 33.00 and 25.91, the IL-5 ([1]; Cell lysate) was 400.50 and 555.84 and the IL-6 ([1]; Cell lysate) was 828.50 and 516.98. The IL-7 ([1]; Cell lysate) was 190.00 and 313.12, the IL-13 ([1]; Cell lysate) was 428.50 and 555.84 and the IL-15 ([1]; Cell lysate) was 599.50 and 808.13. The Leptin ([1]; Cell lysate) was 900.50 and 617.79, the MCP-1 ([1]; Cell lysate) was 242.50 and 282.71 and the MIG ([1]; Cell lysate) was 291.00 and 226.39. For the same substance, the MIP-1-delta ([1]; Cell lysate) was 1.50 and 1.13, the NT-3 ([1]; Cell lysate) was 1.00 and 1.13 and the SCF ([1]; Cell lysate) was 74.50 and 148.67. For the same substance, the “TGF-beta 1” value ([1]; Cell lysate) was 362.00 and 230.33, the TNF-alpha ([1]; Cell lysate) was 431.00 and 579.49 and the TNF-beta ([1]; Cell lysate) was 241.00 and 342.40. The bFGF ([1]; Cell lysate) was 59,820.50 and 54,057.29, the “CXCR4 positive cells (FACS)” value ([2]; day 3, high concentration of Activin A) was 32-42% and the “cells expressing CXCR4 (FACS)” value ([2]; day 5, high concentration of activin A) was 28-32%. The AFP expression ([2]; lower concentration of Activin A, regardless of Wnt3a) was “very high”, the “cells positive for Sox17 and HNF-3beta (immunocytochemistry)” value [3] was 30-40% and the “differentiated cells still Oct4 positive (immunocytochemistry)” value [3] was ~100%.
